From patent US20250230193A1, “CYCLIC COMPOUND HAVING SELECTIVE KRAS INHIBITORY EFFECT ON HRAS AND NRAS” (CHUGAI SEIYAKU KABUSHIKI KAISHA, priority 2022, published 2025)

Tests used:
[1] = biological target: GDP-bound NRAS wild-type protein (Homo sapiens, UniProt P01111); test: Binding to NRAS by surface plasmon resonance (SPR), Single Cycle Kinetics; conditions: KD ratio, GDP-bound NRAS wild-type vs GDP-bound KRAS wild-type, SPR
[2] = biological target: GDP-bound HRAS wild-type protein (Homo sapiens, UniProt P01112); test: Binding to HRAS by surface plasmon resonance (SPR), Single Cycle Kinetics; conditions: KD ratio, GDP-bound HRAS wild-type vs GDP-bound KRAS wild-type, SPR
Sequence of GDP-bound HRAS wild-type protein (P01112 whole entry): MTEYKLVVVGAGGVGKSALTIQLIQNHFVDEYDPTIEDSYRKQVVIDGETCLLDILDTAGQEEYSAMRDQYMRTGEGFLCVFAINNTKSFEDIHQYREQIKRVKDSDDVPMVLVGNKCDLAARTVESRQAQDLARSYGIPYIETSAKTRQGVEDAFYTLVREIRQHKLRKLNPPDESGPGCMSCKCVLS

Sequence of GDP-bound NRAS wild-type protein (P01111 whole entry): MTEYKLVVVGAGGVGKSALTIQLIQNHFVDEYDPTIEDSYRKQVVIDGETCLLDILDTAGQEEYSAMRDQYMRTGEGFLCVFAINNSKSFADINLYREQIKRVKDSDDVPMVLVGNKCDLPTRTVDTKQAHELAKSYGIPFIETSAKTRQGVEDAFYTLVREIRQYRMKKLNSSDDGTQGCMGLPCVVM

| Compound | NRAS/KRAS (ratio of KD value with respect to NRAS to KD value with respect to KRAS) [1] | HRAS/KRAS (ratio of KD value with respect to HRAS to KD value with respect to KRAS) [2] |
| --- | --- | --- |
| CC[C@H](C)[C@@H]1NC(=O)[C@H](CC(C)C)N(C)C(=O)C[C@@H](C(=O)N2CCOCC2)N(C)C(=O)[C@H](C2CCCC2)N(C)C(=O)C2(CCC2)NC(=O)[C@@H]2[C@@H](O)CCN2C(=O)[C@H](CCc2cc(F)c(C(F)(F)F)c(F)c2)NC(=O)CN(C)C(=O)[C@H](Cc2ccc(C(F)(F)F)cc2)N2CCCCC[C@@H](C2=O)N(C)C(=O)CN(C)C1=O [PP0872] | A (a compound having 10 or more and less than 20 is denoted as A) | A (a compound having 10 or more and less than 20 is denoted as A) |
| CC[C@H](C)[C@@H]1NC(=O)[C@H](CC(C)C)N(C)C(=O)C[C@@H](C(=O)N2CCOCC2)N(C)C(=O)[C@H](C2CCCC2)N(C)C(=O)C2(CCC2)NC(=O)[C@@H]2[C@H](O)CCN2C(=O)[C@H](CCc2cc(F)c(C(F)(F)F)c(F)c2)NC(=O)CN(C)C(=O)[C@H](Cc2ccc(C(F)(F)F)cc2)N2CCCCC[C@@H](C2=O)N(C)C(=O)CN(C)C1=O [PP0873] | A (a compound having 10 or more and less than 20 is denoted as A) | B (a compound having 3 or more and less than 10 is denoted as B) |
| C=CC[C@H]1C(=O)N[C@@H]([C@@H](C)CC)C(=O)N(C)CC(=O)N(C)[C@H]2CCCCN(C2=O)[C@@H](Cc2ccc(C(F)(F)F)cc2)C(=O)N(C)CC(=O)N[C@@H](CCc2cc(F)c(C(F)(F)F)c(F)c2)C(=O)N2C[C@H](OCC)C[C@H]2C(=O)N[C@](C)(CC=C)C(=O)N(C)[C@@H](C2CCCC2)C(=O)N(C)[C@H](C(=O)N2CCOCC2)CC(=O)N1C [PP0874] | C (A compound having a KD ratio of 0.1 or more and less than 3 is denoted as C) | B (a compound having 3 or more and less than 10 is denoted as B) |
| C=CCC[C@H]1C(=O)N[C@@H]([C@@H](C)CC)C(=O)N(C)CC(=O)N(C)[C@H]2CCCCN(C2=O)[C@@H](Cc2ccc(C(F)(F)F)cc2)C(=O)N(C)CC(=O)N[C@@H](CCc2cc(F)c(C(F)(F)F)c(F)c2)C(=O)N2C[C@H](OCC)C[C@H]2C(=O)N[C@](C)(CC=C)C(=O)N(C)[C@@H](C2CCCC2)C(=O)N(C)[C@H](C(=O)N2CCOCC2)CC(=O)N1C [PP0875] | C (A compound having a KD ratio of 0.1 or more and less than 3 is denoted as C) | B (a compound having 3 or more and less than 10 is denoted as B) |
| C=CCCC[C@H]1C(=O)N[C@@H]([C@@H](C)CC)C(=O)N(C)CC(=O)N(C)[C@H]2CCCCN(C2=O)[C@@H](Cc2ccc(C(F)(F)F)cc2)C(=O)N(C)CC(=O)N[C@@H](CCc2cc(F)c(C(F)(F)F)c(F)c2)C(=O)N2C[C@H](OCC)C[C@H]2C(=O)N[C@](C)(CC=C)C(=O)N(C)[C@@H](C2CCCC2)C(=O)N(C)[C@H](C(=O)N2CCOCC2)CC(=O)N1C [PP0876] | C (A compound having a KD ratio of 0.1 or more and less than 3 is denoted as C) | C (A compound having a KD ratio of 0.1 or more and less than 3 is denoted as C) |
| C=CCCCC[C@H]1C(=O)N[C@@H]([C@@H](C)CC)C(=O)N(C)CC(=O)N(C)[C@H]2CCCCN(C2=O)[C@@H](Cc2ccc(C(F)(F)F)cc2)C(=O)N(C)CC(=O)N[C@@H](CCc2cc(F)c(C(F)(F)F)c(F)c2)C(=O)N2C[C@H](OCC)C[C@H]2C(=O)N[C@](C)(CC=C)C(=O)N(C)[C@@H](C2CCCC2)C(=O)N(C)[C@H](C(=O)N2CCOCC2)CC(=O)N1C [PP0877] | C (A compound having a KD ratio of 0.1 or more and less than 3 is denoted as C) | B (a compound having 3 or more and less than 10 is denoted as B) |
| C=CC[C@H]1C(=O)N[C@@H]([C@@H](C)CC)C(=O)N(C)CC(=O)N(C)[C@H]2CCCCCN(C2=O)[C@@H](Cc2ccc(C(F)(F)F)cc2)C(=O)N(C)CC(=O)N[C@@H](CCc2cc(F)c(C(F)(F)F)c(F)c2)C(=O)N2C[C@H](OCC)C[C@H]2C(=O)N[C@](C)(CC=C)C(=O)N(C)[C@@H](C2CCCC2)C(=O)N(C)[C@H](C(=O)N2CCOCC2)CC(=O)N1C [PP0878] | B (a compound having 3 or more and less than 10 is denoted as B) | B (a compound having 3 or more and less than 10 is denoted as B) |
| C=CCC[C@H]1C(=O)N[C@@H]([C@@H](C)CC)C(=O)N(C)CC(=O)N(C)[C@H]2CCCCCN(C2=O)[C@@H](Cc2ccc(C(F)(F)F)cc2)C(=O)N(C)CC(=O)N[C@@H](CCc2cc(F)c(C(F)(F)F)c(F)c2)C(=O)N2C[C@H](OCC)C[C@H]2C(=O)N[C@](C)(CC=C)C(=O)N(C)[C@@H](C2CCCC2)C(=O)N(C)[C@H](C(=O)N2CCOCC2)CC(=O)N1C [PP0879] | B (a compound having 3 or more and less than 10 is denoted as B) | B (a compound having 3 or more and less than 10 is denoted as B) |
| C=CCCC[C@H]1C(=O)N[C@@H]([C@@H](C)CC)C(=O)N(C)CC(=O)N(C)[C@H]2CCCCCN(C2=O)[C@@H](Cc2ccc(C(F)(F)F)cc2)C(=O)N(C)CC(=O)N[C@@H](CCc2cc(F)c(C(F)(F)F)c(F)c2)C(=O)N2C[C@H](OCC)C[C@H]2C(=O)N[C@](C)(CC=C)C(=O)N(C)[C@@H](C2CCCC2)C(=O)N(C)[C@H](C(=O)N2CCOCC2)CC(=O)N1C [PP0880] | B (a compound having 3 or more and less than 10 is denoted as B) | B (a compound having 3 or more and less than 10 is denoted as B) |
| CCO[C@@H]1C[C@H]2C(=O)NC3(CCC3)C(=O)N(C)[C@@H](C3CCCC3)C(=O)N(C)[C@H](C(=O)N(C)C)CC(=O)N(C)[C@@H](CC)C(=O)N[C@@H]([C@@H](C)CC)C(=O)N(C)CC(=O)N(C)[C@H]3CCCCN(C3=O)[C@@H](Cc3ccc(C(F)(F)F)cc3)C(=O)N(C)CC(=O)N[C@@H](CCc3ccc(C(F)(F)F)c(C)c3)C(=O)N2C1 [PP0882] | C (A compound having a KD ratio of 0.1 or more and less than 3 is denoted as C) | B (a compound having 3 or more and less than 10 is denoted as B) |
| CCO[C@@H]1C[C@H]2C(=O)NC3(CCC3)C(=O)N(C)[C@@H](C3CCCC3)C(=O)N(C)[C@H](C(=O)N(C)C)CC(=O)N(C)[C@@H](CC)C(=O)N[C@@H]([C@@H](C)CC)C(=O)N(C)CC(=O)N(C)[C@H]3CCCCN(C3=O)[C@@H](Cc3ccc(C(F)(F)F)cc3)C(=O)N(C)CC(=O)N[C@@H](CCc3ccc(C(F)(F)F)c(OC)c3)C(=O)N2C1 [PP0884] | C (A compound having a KD ratio of 0.1 or more and less than 3 is denoted as C) | C (A compound having a KD ratio of 0.1 or more and less than 3 is denoted as C) |
| CCO[C@@H]1C[C@H]2C(=O)NC3(CCC3)C(=O)N(C)[C@@H](C3CCCC3)C(=O)N(C)[C@H](C(=O)N(C)C)CC(=O)N(C)[C@@H](CC)C(=O)N[C@@H]([C@@H](C)CC)C(=O)N(C)CC(=O)N(C)[C@H]3CCCCN(C3=O)[C@@H](Cc3ccc(C(F)(F)F)cc3)C(=O)N(C)CC(=O)N[C@@H](CCc3ccc(C(F)(F)F)cc3F)C(=O)N2C1 [PP0885] | C (A compound having a KD ratio of 0.1 or more and less than 3 is denoted as C) | B (a compound having 3 or more and less than 10 is denoted as B) |
| CCO[C@@H]1C[C@H]2C(=O)NC3(CCC3)C(=O)N(C)[C@@H](C3CCCC3)C(=O)N(C)[C@H](C(=O)N(C)C)CC(=O)N(C)[C@@H](CC)C(=O)N[C@@H]([C@@H](C)CC)C(=O)N(C)CC(=O)N(C)[C@H]3CCCCN(C3=O)[C@@H](Cc3ccc(C(F)(F)F)cc3)C(=O)N(C)CC(=O)N[C@@H](CCc3c(F)c(F)c(C(F)(F)F)c(F)c3F)C(=O)N2C1 [PP0886] | C (A compound having a KD ratio of 0.1 or more and less than 3 is denoted as C) | B (a compound having 3 or more and less than 10 is denoted as B) |
| CCO[C@@H]1C[C@H]2C(=O)NC3(CCC3)C(=O)N(C)[C@@H](C3CCCC3)C(=O)N(C)[C@H](C(=O)N(C)C)CC(=O)N(C)[C@@H](CC)C(=O)N[C@@H]([C@@H](C)CC)C(=O)N(C)CC(=O)N(C)[C@H]3CCCCN(C3=O)[C@@H](Cc3ccc(C(F)(F)F)cc3)C(=O)N(C)CC(=O)N[C@@H](CCc3ccc4sccc4c3)C(=O)N2C1 [PP0887] | C (A compound having a KD ratio of 0.1 or more and less than 3 is denoted as C) | C (A compound having a KD ratio of 0.1 or more and less than 3 is denoted as C) |
| CCO[C@@H]1C[C@H]2C(=O)NC3(CCC3)C(=O)N(C)[C@@H](C3CCCC3)C(=O)N(C)[C@H](C(=O)N(C)C)CC(=O)N(C)[C@@H](CC)C(=O)N[C@@H]([C@@H](C)CC)C(=O)N(C)CC(=O)N(C)[C@H]3CCCCN(C3=O)[C@@H](Cc3ccc(C(F)(F)F)cc3)C(=O)N(C)CC(=O)N[C@@H](CCc3ccc4ccsc4c3)C(=O)N2C1 [PP0888] | C (A compound having a KD ratio of 0.1 or more and less than 3 is denoted as C) | B (a compound having 3 or more and less than 10 is denoted as B) |
| CCO[C@@H]1C[C@H]2C(=O)NC3(CCC3)C(=O)N(C)[C@@H](C3CCCC3)C(=O)N(C)[C@H](C(=O)N(C)C)CC(=O)N(C)[C@@H](CC)C(=O)N[C@@H]([C@@H](C)CC)C(=O)N(C)CC(=O)N(C)[C@H]3CCCCCN(C3=O)[C@@H](Cc3ccc(C(F)(F)F)cc3)C(=O)N(C)CC(=O)N[C@@H](CCc3c(F)c(F)c(C(F)(F)F)c(F)c3F)C(=O)N2C1 [PP0891] | B (a compound having 3 or more and less than 10 is denoted as B) | B (a compound having 3 or more and less than 10 is denoted as B) |
